IC50 data for 4 molecules are collected here from ChEMBL document CHEMBL1777666 (Bioorg Med Chem Lett, 2009).

The target in assay [1] is Aldehyde reductase AKR1A1 (Homo sapiens). Nature of the assay: Inhibition of human recombinant aldehyde reductase after 10 mins by spectrophotometry analysis.
Assay [2] in a line: Inhibition of human recombinant aldose reductase 2 expressed in Escherichia coli BL21 after 10 mins by spectrophotometry analysis.

pIC50: −log10 of the molar value.

In the case of `Cc1ccc2c(Cc3nc4c(F)c(F)cc(F)c4s3)cn(CC(=O)O)c2n1`, the figures for the pIC50 in assay [1] and in assay [2] were under 4.00 and 8.10, respectively.
Take `CCc1ccc2c(Cc3nc4c(F)c(F)cc(F)c4s3)cn(CC(=O)O)c2n1`: the negative logarithm of the IC50 (pIC50) (usually the IC50 on a negative log10 scale, so that one unit is a factor of ten) in assay [2] was 7.92.
On the same count and under the same terms, the same measure for `O=C(O)Cn1cc(Cc2nc3c(F)c(F)cc(F)c3s2)c2ccccc21` [LIDORESTAT]: 8.30.
Same read-out and setting: the same measure for `O=C(O)Cn1cc(Cc2nc3c(F)c(F)cc(F)c3s2)c2cccnc21`: 8.15.
